Data as given in patent publication EP4659750A1, “PHARMACEUTICAL COMPOSITION CONTAINING ß-LACTAMASE INHIBITOR AND USE THEREOF” (Evopoint Biosciences Co., Ltd., priority 2023, dated 2024).
Converted amounts (≈) assume the structure as drawn. Where two headings read alike, the source gives them in different places.

Key:
[1] = system: Pseudomonas aeruginosa ACC00680; test: Neutropenic mouse thigh infection model, Example 1 (imipenem and Compound 1); format: in vivo; conditions: doses at 1,3,5,7 h, thighs 9 h after inoculation
Protocol: (§1) In the following examples, the tests are conducted following the steps below. • (1) Immunization of mice: All mice are injected intraperitoneally with 150 mg/kg cyclophosphamide 4 days before inoculation and 100 mg/kg cyclophosphamide 1 day before inoculation to reduce their neutrophils by immunosuppression. […] The mice are inoculated approximately 24 hours after the second administration of the immunosuppressant. • (2) Bacterial culture: All bacterial strains used for inoculation are prepared from overnight broth cultures. In brief, each strain is allowed to grow in cation-adjusted MuellerHinton broth in a shaking incubator (300 RPM) at 37°C. The overnight cultures are washed twice with phosphate buffer solution (PBS) and adjusted to the optimal concentration in PBS.
(§2) For intravenous (IV) administration, the solution of Compound 1 is prepared using a Captisol vehicle, which is 25 mM acetate buffer (prepared with sodium acetate trihydrate) containing 10% w/v Captisol. The pH is adjusted to 5.0 with 2N acetic acid solution. A desired volume of buffer is added to the weighed sample, the desired concentration of Compound 1 is prepared in the buffer, which is then ultrasonically heated in a water bath until a clear solution was obtained. The administrated volume of Compound 1 is 5 mL/kg.
(§3) For subcutaneous (SC) administration, an imipenem solution or imipenem-cilastatin solution is prepared in sterile PBS by using imipenem monohydrate or imipenem monohydrate and cilastatin sodium. The desired concentration of imipenem is prepared by adding PBS to the solid powder, then sonicating the mixture in a water bath until a clear solution is obtained, and the administrated volume is 10 mL/kg.
The mice were divided into 15 groups, with 5 mice in each group. The test was carried out following the above steps, the concentration of the bacterial solution of Pseudomonas aeruginosa ACC00680 was 1.83×10^5 colony forming unit (CFU) per gram of thigh tissues, and the administration was conducted according to the scheme in the table below.
For Groups 2 to 15 above, animals were euthanized 9 hours after inoculation using an overdose of sodium pentobarbital, followed by confirmation of death by cervical dislocation. The thighs were dissected and weighed, then homogenized in an ice-cold sterile phosphate buffer using a Precellys microsphere homogenizer; and the homogenate was quantitatively cultured on drug-free agar (CLED or PSA) and incubated for 18-24 h at 37°C, followed by colony counting.
(§4) For the […] Group 1 (control group) above, animals were euthanized with an overdose of sodium pentobarbital 1 hour after inoculation. As described above, bilateral thighs were dissected and quantitatively cultured for use as final samples.

[2] = system: Pseudomonas aeruginosa ACC00680; test: Neutropenic mouse thigh infection model, Example 2 (imipenem, cilastatin and Compound 1); format: in vivo; conditions: Compound 1 96 mg/kg total IV; doses at 1,3,5,7 h; thighs 9 h after inoculation
Protocol: as §1, with “The overnight cultures are washed twice with phosphate buffer solution (PBS) and adjusted to the optimal concentration in PBS.” left out
(§5) For Groups 2 to 16 above, animals were euthanized 9 hours after inoculation using an overdose of sodium pentobarbital, followed by confirmation of death by cervical dislocation. The thighs were dissected and weighed, then homogenized in an ice-cold sterile phosphate buffer using a Precellys microsphere homogenizer; and the homogenate was quantitatively cultured on drug-free agar (CLED or PSA) and incubated for 18-24 h at 37°C, followed by colony counting.
as §4

[3] = system: Acinetobacter baumannii AR0274; test: Neutropenic mouse thigh infection model, Example 3; format: in vivo; conditions: doses at 1,3,5,7 h, thighs 9 h after inoculation
Protocol: as §1, §2, §3
The mice were divided into 16 groups, with 5 mice in each group. The test was carried out following the above experimental steps, the inoculation amount of Acinetobacter baumannii AR0274 was 1.8×10^6 CFU per gram of thigh tissue, and the administration was conducted according to the scheme in the table below.
as §5, §4

[4] = system: Klebsiella pneumoniae ARo113; test: Neutropenic mouse thigh infection model, Example 4; format: in vivo; conditions: doses at 1,3,5,7 h, thighs 9 h after inoculation
Protocol: as §1, §2, §3
The mice were divided into 16 groups, with 5 mice in each group. The test was carried out following the above steps, the concentration of the bacterial solution of Klebsiella pneumoniae ARo113 was 4.0x10^6 CFU per gram of thigh tissues, and the administration was conducted according to the scheme in the table below.
For Groups 2 to 16 above, animals were euthanized 9 hours after inoculation using an overdose of sodium pentobarbital, followed by confirmation of death by cervical dislocation. The thighs were dissected and weighed, then homogenized in an ice-cold sterile phosphate buffer using a Precellys microsphere homogenizer; and the homogenate was quantitatively cultured on drug-free agar (CLED or PSA) and incubated for 12-16 h at 30°C, followed by colony counting.
as §4

[5] = Solubility of Compound 1 (HPLC), selection of solubilizer type; format: physicochemical; conditions: for solubility at 24 h: read-out: Concentration
Protocol: The solubilization effect of sodium sulfobutylether-β-cyclodextrin (SBECD) and hydroxypropyl-β-cyclodextrin (HP-β-CD) on Compound 1 was investigated by taking the solubility in 50 mM pH 4.5 acetate buffer medium and water as a reference. […] Table Solubility of Compound 1 incubated for 24 h at 25°C
In the art, surfactants may also be used for solubilization. To further improve the solubility of Compound 1, a surfactant was added on the basis of SBECD to investigate the solubility. […] Table Solubility of Compound 1 incubated for 24 h at 25°C

OXA β-lactamases = test: In vitro inhibition of OXA β-lactamases; format: biochemical, Acinetobacter baumannii; conditions: in vitro (background statement)
Pseudomonas aeruginosa = test: Mice neutropenic thigh infection model, human-simulated dosing regimen, Example 5; format: in vivo; conditions: monotherapy, human-simulated imipenem dosing regimen (500 mg, q6h, infused for 60 minutes); four strains; 24 h
Acinetobacter baumannii = test: as above; format: in vivo; conditions: monotherapy, human-simulated imipenem dosing regimen (500 mg, q6h, infused for 60 minutes); seven strains; 24 h
Klebsiella pneumoniae = test: as above; format: in vivo; conditions: monotherapy, human-simulated imipenem dosing regimen (500 mg, q6h, infused for 60 minutes); four strains
Protocol: A total of 15 bacterial strains (4 strains of Pseudomonas aeruginosa, 4 strains of Klebsiella pneumoniae and 7 strains of Acinetobacter baumannii, see the table below) were selected for dose study of Compound 1 in the mice neutropenic thigh infection model. In terms of administrated dose, imipenem was administered with a human-simulated dosing regimen (500 mg, q6h, infused for 60 minutes),and also combined with different doses of Compound 1.
At 0 h, the mean bacterial load in the thighs of mice was 5.92 ± 0.14 log10 CFU/thigh.

SMILES: N=C1NC[C@@H](c2nnc([C@@H]3CC4(CC4)[C@@H]4CN3C(=O)N4OS(=O)(=O)O)o2)N1 [Compound 1]
- Change in Pre-Tx Log10 load ([1]; Compound 1 50 mg/kg total IV): 0.36 log10 CFU/g
- Log10 group geometric mean (CFU/g) ([1]; Compound 1 50 mg/kg total IV): 5.67 log10 CFU/g
- Change in Pre-Tx Log10 load ([1]; Compound 1 75 mg/kg total IV): 0.98 log10 CFU/g
- Log10 group geometric mean (CFU/g) ([1]; Compound 1 75 mg/kg total IV): 6.29 log10 CFU/g
- Change in Pre-Tx Log10 load ([1]; Compound 1 100 mg/kg total IV): 1.35 log10 CFU/g
- Log10 group geometric mean (CFU/g) ([1]; Compound 1 100 mg/kg total IV): 6.65 log10 CFU/g
- Change in Pre-Tx Log10 loading (CFU/g) [2]: 2.45 log10 CFU/g
- Log10 group geometric mean (CFU/g) [2]: 7.51 log10 CFU/g
- Change in Pre-Tx Log10 loading (CFU/g) ([3]; Compound 1 96 mg/kg total IV): 1.53 log10 CFU/g
- Log10 group geometric mean (CFU/g) ([3]; Compound 1 96 mg/kg total IV): 7.28 log10 CFU/g
- Change in Pre-Tx Log10 loading (CFU/g) ([4]; Compound 1 96 mg/kg total): 1.11 log10 CFU/g
- Log10 group geometric mean (CFU/g) ([4]; Compound 1 96 mg/kg total): 7.31 log10 CFU/g
- solubility at 24 h ([5]; 50 mm acetate buffer, pH 4.5, aqueous buffer, solubility in 50 mM acetate buffer (pH 4.5) (control), 24 h at 25°C): 3850 µg/mL (≈ 9.64 mM)
- solubility at 24 h ([5]; aqueous hp-β-cd 10%, solubility in aqueous HP-β-CD 10%, 24 h at 25°C): 5000 µg/mL (≈ 12.5 mM)
- solubility at 24 h ([5]; aqueous hp-β-cd 20%, solubility in aqueous HP-β-CD 20%, 24 h at 25°C): 6400 µg/mL (≈ 16 mM)
- solubility at 24 h ([5]; aqueous hp-β-cd 30%, solubility in aqueous HP-β-CD 30%, 24 h at 25°C): 7720 µg/mL (≈ 19.3 mM)
- solubility at 24 h ([5]; aqueous sbecd 10%, peg 400, organic solvent or mixture, solubility in aqueous SBECD 10% and PEG 400 5%, 24 h at 25°C): 6210 µg/mL (≈ 15.5 mM)
- solubility at 24 h ([5]; aqueous sbecd 10%, peg 400, organic solvent or mixture, solubility in aqueous SBECD 10% and PEG 400 20%, 24 h at 25°C): 6350 µg/mL (≈ 15.9 mM)
- solubility at 24 h ([5]; aqueous sbecd 10%, peg 400, organic solvent or mixture, solubility in aqueous SBECD 10% and PEG 400 40%, 24 h at 25°C): 6840 µg/mL (≈ 17.1 mM)
- solubility at 24 h ([5]; aqueous sbecd 10%, pvp k12, solubility in aqueous SBECD 10% and PVP K12 0.5%, 24 h at 25°C): 6440 µg/mL (≈ 16.1 mM)
- solubility at 24 h ([5]; aqueous sbecd 10%, pvp k12, solubility in aqueous SBECD 10% and PVP K12 1%, 24 h at 25°C): 6420 µg/mL (≈ 16.1 mM)
- solubility at 24 h ([5]; aqueous sbecd 10%, pvp k12, solubility in aqueous SBECD 10% and PVP K12 2.5%, 24 h at 25°C): 6380 µg/mL (≈ 16 mM)
- solubility at 24 h ([5]; aqueous sbecd 10%, solubility in aqueous SBECD 10%, 24 h at 25°C): 5960 µg/mL (≈ 14.9 mM)
- solubility at 24 h ([5]; aqueous sbecd 20%, solubility in aqueous SBECD 20%, 24 h at 25°C): 8460 µg/mL (≈ 21.2 mM)
- solubility at 24 h ([5]; aqueous sbecd 30%, solubility in aqueous SBECD 30%, 24 h at 25°C): 10500 µg/mL (≈ 26.3 mM)
- solubility at 24 h ([5]; aqueous sbecd, poloxamer 188, solubility in aqueous SBECD 10% and Poloxamer 188 1%, 24 h at 25°C): 6750 µg/mL (≈ 16.9 mM)
- solubility at 24 h ([5]; aqueous sbecd, pvp, poloxamer 188, solubility in aqueous SBECD 10%, PVP K12 0.5% and Poloxamer 188 1%, 24 h at 25°C): 6950 µg/mL (≈ 17.4 mM)
- solubility at 24 h ([5]; aqueous sbecd, pvp, solutol hs15, solubility in aqueous SBECD 10%, PVP K12 0.5% and Solutol HS15 1%, 24 h at 25°C): 6870 µg/mL (≈ 17.2 mM)
- solubility at 24 h ([5]; aqueous sbecd, pvp, tween 80, solubility in aqueous SBECD 10%, PVP K12 0.5% and Tween 80 1%, 24 h at 25°C): 6990 µg/mL (≈ 17.5 mM)
- solubility at 24 h ([5]; aqueous sbecd, solutol hs15, solubility in aqueous SBECD 10% and Solutol HS15 1%, 24 h at 25°C): 6680 µg/mL (≈ 16.7 mM)
- solubility at 24 h ([5]; aqueous sbecd, tween 80, solubility in aqueous SBECD 10% and Tween 80 1%, 24 h at 25°C): 6920 µg/mL (≈ 17.3 mM)
- Concentration ([5]; solubility in aqueous SBECD 10%, 24 h at 25°C): 5960 µg/mL
- Concentration ([5]; solubility in water (control), incubated 24 h at 25°C): 600 µg/mL
- solubility at 24 h ([5]; water, solubility in water (control), incubated 24 h at 25°C): 600 µg/mL (≈ 1.5 mM)
- inhibition of OXA β-lactamases (OXA β-lactamases): effectively inhibit

SMILES: C[C@@H](O)[C@H]1C(=O)N2C(C(=O)O)=C(SCCN=CN)C[C@H]12 [Imipenem, imipenem monohydrate]
- Change in Pre-Tx Log10 load ([1]; Imipenem 100 mg/kg total SC): 0.73 log10 CFU/g
- Group geometric mean (CFU/g) ([1]; Imipenem 100 mg/kg total SC): 1.08×10^6 CFU/g
- Log10 group geometric mean (CFU/g) ([1]; Imipenem 100 mg/kg total SC): 6.03 log10 CFU/g
- Change in Pre-Tx Log10 loading (CFU/g) ([3]; Imipenem 96 mg/kg total SC): 1.85 log10 CFU/g
- Group geometric mean (CFU/g) ([3]; Imipenem 96 mg/kg total SC): 3.91×10^7 CFU/g
- Log10 group geometric mean (CFU/g) ([3]; Imipenem 96 mg/kg total SC): 7.59 log10 CFU/g
- Change in Pre-Tx Log10 loading (CFU/g) ([4]; Imipenem 96 mg/kg total SC): 0.93 log10 CFU/g
- Group geometric mean (CFU/g) ([4]; Imipenem 96 mg/kg total SC): 1.34×10^7 CFU/g
- Log10 group geometric mean (CFU/g) ([4]; Imipenem 96 mg/kg total SC): 7.13 log10 CFU/g
- mean increase in bacterial load (Pseudomonas aeruginosa): 2.64 ± 1.18 log10 CFU/thigh
- mean increase in bacterial load (Acinetobacter baumannii): 2.16 ± 0.74 log10 CFU/thigh
- mean increase in bacterial load (Klebsiella pneumoniae): 2.83 ± 0.81 log10 CFU/thigh
